How the values were obtained:
rat P2X7 = molecular target: T1, rat P2X7 (Rattus norvegicus, UniProt Q64663); assay: Ca2+ flux (FLIPR) in 1321N1 cells expressing recombinant rat P2X7 channel; conditions: FLIPR (rat) IC50 (μM), 250 μM BzATP
T1 sequence (Q64663 1-595): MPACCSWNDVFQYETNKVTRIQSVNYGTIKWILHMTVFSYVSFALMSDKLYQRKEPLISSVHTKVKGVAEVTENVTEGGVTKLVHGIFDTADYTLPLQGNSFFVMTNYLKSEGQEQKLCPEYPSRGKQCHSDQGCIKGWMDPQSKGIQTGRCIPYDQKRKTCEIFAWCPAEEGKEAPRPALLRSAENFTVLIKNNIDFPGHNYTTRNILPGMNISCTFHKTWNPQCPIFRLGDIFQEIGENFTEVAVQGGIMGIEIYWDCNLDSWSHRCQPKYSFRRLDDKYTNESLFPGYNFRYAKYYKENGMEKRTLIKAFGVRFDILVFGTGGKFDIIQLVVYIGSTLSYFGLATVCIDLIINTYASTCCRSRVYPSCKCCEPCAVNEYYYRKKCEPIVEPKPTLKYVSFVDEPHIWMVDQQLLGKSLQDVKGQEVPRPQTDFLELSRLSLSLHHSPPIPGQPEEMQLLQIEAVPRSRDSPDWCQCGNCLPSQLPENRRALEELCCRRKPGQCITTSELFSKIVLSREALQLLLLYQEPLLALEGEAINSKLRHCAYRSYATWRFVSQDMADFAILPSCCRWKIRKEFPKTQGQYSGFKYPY

[1] = Biodistribution studies of radiotracer in healthy female Wistar rats; assay type: in vivo; conditions: for % ID blood: blood mass assumed 7% of body mass; for SUV blood / % ID carcass / % ID cerebellum / SUV cerebellum / % ID cerebrum / SUV cortex / % ID heart / SUV hippocampus / % ID intestines / % ID kidneys / % ID liver / % ID lungs / SUV rest of cerebrum / % ID spleen + pancreas / % ID stomach / SUV striatum / % ID urine / SUV whole cerebrum: mean ± SD, n = 3; for % ID bone: calculated to estimated total bone tissue (% ID/g bone * body mass* 0.12)
Procedure: HPLC analysis was performed on a LaChrom Elite HPLC system (Hitachi, Armstadt, Germany) connected to a UV spectrometer set at 220 nm. For the analysis of radiolabeled compounds, the HPLC eluate, after passage through the UV detector, was led over a shielded 3-inch NaI(Tl) scintillation detector connected to a multichannel analyser (Gabi box, Raytest, Straubenhardt, Germany). The output signal was recorded and analysed using a GINA Star data acquisition system (Raytest, Straubenhardt, Germany). Radioactivity in samples of biodistribution studies, cell uptake experiments and radiometabolite analysis was quantified using an automated gamma counter equipped with a 3-inch NaI(Tl) well crystal coupled to a multichannel analyser (Wallac 2480 Wizard, Wallac, Turku, Finland). Results were corrected for background radiation, physical decay and counter dead time.
Animals were housed in individually ventilated cages in a thermoregulated (˜22° C.), humidity-controlled facility under a 12 h/12 h light/dark cycle with access to food and water ad libitum. All animal experiments were conducted according to the Belgian code of practice for the care and use of animals, after approval from the KU Leuven University Ethics Committee for Animals.
The biodistribution studies were performed in healthy female Wistar rats (body weight, 185-220 g) at 2, 30 and 60 min after tracer injection (n=3/time point). […] The animals were sacrificed by decapitation at the indicated time points. Blood and major organs were collected in tared tubes and weighed. The radioactivity in the dissected organs and blood was counted using an automated gamma counter. For calculation of total blood radioactivity, blood mass was assumed to be 7% of the body mass.

## CC1c2nnc(-c3ccccn3)n2CCN1C(=O)c1cccc(Cl)c1Cl (stereo not drawn) [Example 1, (2,3-dichlorophenyl)(8-methyl-3-(pyridin-2-yl)-5,6-dihydro-[1,2,4]triazolo[4,3-a]pyrazin-7(8H)-yl)methanone]
Rat P2X7
  IC50: 1.21 µM

## C[C@H]1Cn2c(nnc2-c2ccc(F)cc2F)CN1C(=O)c1cccc(Cl)c1Cl [Example 50, (S)-(2,3-dichlorophenyl)(3-(2,4-difluorophenyl)-6-methyl-5,6-dihydro-[1,2,4]triazolo[4,3-a]pyrazin-7(8H)-yl)methanone]
Rat P2X7
  IC50: 1.68 µM

## C[C@H]1Cn2c(nnc2-c2ncc(F)cn2)CN1C(=O)c1cccc(C(F)(F)F)c1Cl [Example 74]
Rat P2X7
  IC50: 0.0101 µM

## C[C@H]1Cn2c(nnc2-c2cc([18F])ccn2)CN1C(=O)c1cccc(Cl)c1Cl [[^18F]68, (S)-(2,3-dichlorophenyl)(3-(4-[^18F]fluoropyridin-2-yl)-6-methyl-5,6-dihydro-[1,2,4]triazolo[4,3-a]pyrazin-7(8H)-yl)methanone]
[1]; 2 min after tracer injection
  % ID blood: 6.8 ± 0.6 % ID
  SUV blood: 0.97 ± 0.08
  % ID carcass: 40.8 ± 0.8 % ID
  % ID cerebellum: 0.1 ± 0.0 % ID
  SUV cerebellum: 1.21 ± 0.22
  % ID cerebrum: 0.6 ± 0.0 % ID
  SUV cortex: 1.27 ± 0.13
  % ID heart: 0.9 ± 0.1 % ID
  SUV hippocampus: 1.11 ± 0.10
  % ID intestines: 10.6 ± 2.1 % ID
  % ID kidneys: 3.3 ± 0.5 % ID
  % ID liver: 34.6 ± 2.4 % ID
  % ID lungs: 1.6 ± 0.1 % ID
  SUV rest of cerebrum: 1.20 ± 0.11
  % ID spleen + pancreas: 1.3 ± 0.2 % ID
  % ID stomach: 1.5 ± 0.5 % ID
  SUV striatum: 1.19 ± 0.13
  % ID urine: 0.1 ± 0.0 % ID
  SUV whole cerebrum: 1.20 ± 0.11
[1]; 30 min after tracer injection
  % ID blood: 4.3 ± 0.3 % ID
  SUV blood: 0.61 ± 0.04
  % ID carcass: 56.6 ± 2.8 % ID
  % ID cerebellum: 0.0 ± 0.0 % ID
  SUV cerebellum: 0.33 ± 0.07
  % ID cerebrum: 0.1 ± 0.0 % ID
  SUV cortex: 0.94 ± 0.29
  % ID heart: 0.2 ± 0.0 % ID
  SUV hippocampus: 0.23 ± 0.04
  % ID intestines: 20.9 ± 6.0 % ID
  % ID kidneys: 1.1 ± 0.2 % ID
  % ID liver: 7.5 ± 0.6 % ID
  % ID lungs: 0.7 ± 0.1 % ID
  SUV rest of cerebrum: 0.31 ± 0.06
  % ID spleen + pancreas: 0.3 ± 0.1 % ID
  % ID stomach: 1.6 ± 0.9 % ID
  SUV striatum: 0.24 ± 0.05
  % ID urine: 8.4 ± 1.8 % ID
  SUV whole cerebrum: 0.31 ± 0.06
[1]; 60 min after tracer injection
  % ID blood: 2.0 ± 0.5 % ID
  SUV blood: 0.29 ± 0.07
  % ID carcass: 60.4 ± 2.3 % ID
  % ID cerebellum: 0.0 ± 0.0 % ID
  SUV cerebellum: 0.38 ± 0.08
  % ID cerebrum: 0.1 ± 0.0 % ID
  SUV cortex: 0.69 ± 0.17
  % ID heart: 0.1 ± 0.0 % ID
  SUV hippocampus: 0.19 ± 0.03
  % ID intestines: 11.2 ± 0.6 % ID
  % ID kidneys: 0.9 ± 0.1 % ID
  % ID liver: 3.61 ± 0.3 % ID
  % ID lungs: 0.6 ± 0.2 % ID
  SUV rest of cerebrum: 0.25 ± 0.04
  % ID spleen + pancreas: 0.2 ± 0.0 % ID
  % ID stomach: 10.7 ± 3.3 % ID
  SUV striatum: 0.19 ± 0.03
  % ID urine: 8.4 ± 1.8 % ID
  SUV whole cerebrum: 0.25 ± 0.04
[1]; 2 min
  % ID bone: 8.8 ± 0.8 % ID
[1]; 30 min
  % ID bone: 44.5 ± 3.8 % ID
[1]; 60 min
  % ID bone: 64.5 ± 5.9 % ID
